The results in this text go back to US5677342A, “Phenoxy acetic acids as aldose reductase inhibitors and antihyperglycemic agents” (American Home Products Corporation, priority 1996, dated 1997).

Experiment [1] has as its target T1, bovine lens aldose reductase (Bos taurus, UniProt P16116).
T1 construct: preparation of the enzyme from bovine lens; from tissue; host or cells: bovine lens
As to the kind of experiment: In vitro Inhibition of Aldose Reductase in the Bovine Lens. The class given is biochemical. Conditions: DL-glyceraldehyde as substrate; for inhibition at 0.04 µM: dose 4 × 10^-8 M; for inhibition at 0.1 µM: dose 10^-7 M. How it is done: I. In vitro Inhibition of Aldose Reductase in the Bovine Lens
The aldose reductase inhibiting effects of the compounds of formula I were tested by employing an in vitro testing procedure similar to that described by S. Hayman and J. H. Kinoshita, J. Biol. Chem., 240, 877 (1965) wherein the abilitty of the invention compounds to inhibit bovine lens aldose reductase with DL-glyceraldehyde as the substrate was determined. In the present case the procedure of Hayman and Kinoshita was modified in that the final chromatography step was omitted in the preparation of the enzyme from bovine lens.

The test system of experiment [2] is ob/ob mice. The experiment is described as follows: Determination of Blood Glucose Lowering Effect in ob/ob mice. The class given is in vivo, ob/ob mice (C57B1/6J). Conditions: 100 mg/kg, p.o. How it is done:
3. Determination of Blood Glucose Lowering Effect in ob/ob mice
Male or female ob/ob mice (C57B1/6J), ages 2 to 5 months (10 to 65 g), of a similar age are randomized according to plasma glucose into 4 groups of 10 mice. The mice are housed 5 per cage and are maintained on normal rodent chow with water ad libitum. The mice receive test compound daily. The test compound is suspended in 0.5 mL of 0.5% methyl cellulose and is administered by gavage (dissolved in drinking water) or admixed in the diet. The dose of compound given ranges from 2.5 to 200 mg/kg/day. Body weight of fed animals is measured at the beginning of each week and doses for the entire week are calculated using this weight and are expressed in terms of the active moiety of the compound. Control mice receive vehicle only.
On the morning of Days 4, 7 or 14 two drops of blood (approximately 50 μl) are collected into sodium fluoride containing tubes either from the tail vein or after decapitation. […] The plasma is isolated by centrifugation and the concentration of glucose is measured enzymatically on an Abbott V. P. Analyzer and the plasma concentration of insulin is determined by radioimmunoassay (Heding, 1972). For each mouse, the percentage change in plasma glucose on Day 4, 7 or 14 is calculated relative to the mean plasma glucose of the vehicle treated mice. […]

For experiment [3], the system named is diabetic db/db mice. As to the kind of experiment: Determination of Blood Glucose Lowering in Diabetic db/db Mice. The class given is in vivo, male diabetic db/db (C57BL/KsJ) mice. Conditions: p.o.; for plasma glucose lowering compared with ciglitazone / % Change glucose: 100 mg/kg; for plasma glucose lowering compared with ciglitazone: in words; for % Change glucose: plasma glucose Day 4 (mean of 2 and 4 hr samples) vs Day 1 baseline. How it is done: 2. Determination of Blood Glucose Lowering in Diabetic db/db Mice. On the morning of Day 1, 35 mice [male diabetic db/db (C57BL/KsJ) mice (Jackson Laboratories), 2-7 months of age and 50-70 g] were fasted for 4 hours, weighed and a baseline blood sample (15-30 μl) was collected from the tail-tip of each mouse without anesthesia, and placed directly into a fluoride-containing tube, mixed and maintained on ice. Food was then returned to the mice. The plasma was separated and levels of glucose in plasma determined by the Abbott VP Analyzer. Because of the variable plasma glucose levels of the db/db mice, 5 mice having the most extreme (i.e., highest or lowest) plasma glucose levels were excluded and the remaining 30 mice were randomly assigned into 7 groups of equivalent mean plasma glucose levels (N=6 for vehicle and N=4 for each drug group). On the afternoon of Days 1, 2 and 3, the vehicle, control or test drugs were administered (p.o.) to the ad libitum fed mice. On the morning of Day 4, the mice were weighed and food removed, but water was available ad libitum. Three hours later, a blood sample was collected and then the mice were given the fourth administration of drug or vehicle. Blood samples were collected again from the unanesthetized mice at 2 and 4 hours after drug administration. The plasma was separated and levels of glucose in plasma was determined by the Abbott VP Analyzer. For each mouse, the percent change of its plasma glucose level on Day 4 (mean of the 2 and 4 hr samples) from respective level before drug administration (Day 1 baseline sample) is determined as follows: [formula] Analysis of variance followed by Dunnett's multiple comparison (one-sided) will be used to estimate the 'degree of statistical significance of the difference between the vehicle control group and the individual drug-treated groups. A drug will be considered active, at the specific dosage administered, if the difference of the plasma glucose level has a p<0.05.

As for `Cc1c(Cl)c(OCC(=O)O)c(Cc2ccc3c(Cl)cccc3c2)c(O)c1C=O` [Example 1, [2-chloro-6-(5-chloro-naphthalen-2-ylmethyl)-4-formyl-5-hydroxy-3-methyl-phenoxy]-acetic acid], in experiment [1], the inhibition (as a rule, the relative decrease from the control value, in per cent) at 0.04 µM was 49%. In addition, the “% Change glucose” value in experiment [2] (plasma glucose on Day 4, 7 or 14 relative to vehicle mean) is reported as -24%. In experiment [2] (plasma insulin by radioimmunoassay, Day 4, 7 or 14), the “% Change insulin” value is reported as -38%. Moreover, in experiment [3], the “plasma glucose lowering compared with ciglitazone” value was “comparable with the results for ciglitazone” and the “% Change glucose” value was -19%.
`O=Cc1ccc(OCC(=O)O)c(Cc2ccc3ccccc3c2)c1O` [Example 2, (4-formyl-3-hydroxy-2-naphthalen-2-ylmethyl-phenoxy)-acetic acid] came in with an inhibition at 0.1 µM in experiment [1] of 34%. Besides, in experiment [3], the “plasma glucose lowering compared with ciglitazone” value is “comparable with the results for ciglitazone” and the “% Change glucose” value is -23%.
For the molecule `O=Cc1ccc(OCC(=O)O)c(Cc2cccc3ccccc23)c1O` [Example 3, (4-formyl-3-hydroxy-2-naphthalen-1-ylmethyl-phenoxy)-acetic acid], in experiment [1] (dose 10^-6 M), the inhibition at 1 µM turned out to be 53%.
Turning to `O=Cc1ccc(OCC(=O)O)c(Cc2ccc3c(Cl)cccc3c2)c1O` [Example 4, [2-(5-chloro-naphthalen-2-ylmethyl)-4-formyl-3-hydroxy-phenoxy]-acetic acid], the inhibition at 0.04 µM in experiment [1] turned out to be 78%.
Same read-out and setting: the result for `O=Cc1ccc(OCC(=O)O)c(Cc2ccc3c(Br)cccc3c2)c1O` [Example 5, [2-(5-bromo-naphthalen-2-ylmethyl)-4-formyl-3-hydroxy-phenoxy]-acetic acid] reads 84%.
On the same count and under the same terms, the result for `O=Cc1ccc(OCC(=O)O)c(Cc2ccc3ccccc3c2Br)c1O` [Example 6, [2-(1-bromo-naphthalen-2-ylmethyl)-4-formyl-3-hydroxy-phenoxy]-acetic acid] reads 78%; that for `COc1c(C=O)ccc(OCC(=O)O)c1Cc1ccc2c(Cl)cccc2c1` [Example 7, [2-(5-chloro-naphthalen-2-ylmethyl)-4-formyl-3-methoxy-phenoxy]-acetic acid], 83%.
With `COc1cc(OCC(=O)O)c(Cc2ccc3c(Cl)cccc3c2)c(O)c1C=O` [Example 8, [2-(5-chloro-naphthalen-2-ylmethyl)-4-formyl-3-hydroxy-5-methoxy-phenoxy]-acetic acid], in experiment [1], 0.04 µM produced 81% inhibition.
For `Cc1cc(OCC(=O)O)c(Cc2ccc3c(Cl)cccc3c2)c(O)c1C=O` [Example 9, [2-(5-chloro-naphthalen-2-ylmethyl)-4-formyl-3-hydroxy-5-methyl-phenoxy]-acetic acid], in experiment [1], the inhibition at 0.04 µM came out at 89%.
On to `O=Cc1cc(Cl)c(OCC(=O)O)c(Cc2ccc3c(Cl)cccc3c2)c1O` [Example 10, [6-chloro-2-(5-chloro-naphthalen-2-ylmethyl)-4-formyl-3-hydroxy-phenoxy]-acetic acid], for which the inhibition at 0.1 µM in experiment [1] was determined as 36%.
As for `CC1(COc2ccc(CC3SC(=O)NC3=O)cc2)CCCCC1` (stereo not drawn) [ciglitazone, reference compound], the “decrease in plasma glucose levels (average)” value in experiment [3] (positive control, 100 mg/kg/day × 4 days, average) was 26%. Besides, in experiment [3] (positive control, 100 mg/kg/day × 4 days, range), the “decrease in plasma glucose levels” value is listed as 18 to 34%.
